Reference: the OPERA property sets (Mansouri et al. 2018)
Peptide text beside a SMILES is read from it. * marks the point of attachment. NHtBu = CC(C)(C)N*

Conditions: not given

Row | SMILES | logP
1 | CN(C)C(N(C)C)=S(I)c1ccc(C#N)cc1 (stereo not drawn) | -1.13
2 | O=C(NP(=O)(N1CC1)N1CC1)c1ccccc1Br | 1.08
3 | CCN(N=O)C(=O)N(C)C | 0.71
4 | CN(CC(C)(C)C)N=O | 1.34
5 | C=CCC | 2.4
6 | NC1C2CCC1c1ccccc12 (stereo not drawn) | 2.13
7 | CCCCCOc1ccc(O)cc1 | 3.5
8 | CN(C)C(=O)Nc1ccccc1 | 0.98
9 | CC(=O)Nc1ccccn1 | 0.61
10 | CN(C)C(=O)OCc1cccc(Cl)c1 | 2.82
11 | Nc1nccc(=O)[nH]1 | -0.99
12 | O=S(=O)(O)c1ccc(O)c2ccccc12 | -0.44
13 | CSCC[C@H](N)C(=O)O | -1.87
14 | CS(=O)(=O)ON1C(=O)c2ccc([N+](=O)[O-])cc2C1=O | 1.71
15 | CC(=O)C(C)=O | -1.34
16 | CCCOc1cn[nH]c1 | 1.42
17 | O=[N+]([O-])c1cc[n+]([O-])c2ccc(Cl)cc12 | 1.41
18 | O=NN1CCCC(O)C1 (stereo not drawn) | -0.47
19 | c1ccc2sccc2c1 | 3.12
20 | Ic1cn[nH]c1 | 1.7
21 | CCCCn1nnc2ccccc21 | 2.57
22 | Nc1ccc(Sc2ccc(N)cc2)cc1 | 2.18
23 | CC(C)(C)NC(=O)[C@H]1CC[C@H]2[C@@H]3CC[C@H]4NC(=O)C=C[C@]4(C)[C@H]3CC[C@]12C | 3.03
24 | CNC(=O)Oc1ccc(C(C)C)c(C)c1 | 3.11

Row | SMILES | logP
25 | Nc1nc(N)nc(-c2cccc(SC(F)(F)F)c2)n1 | 3.2
26 | CSc1cccc(OCC(=O)O)c1 | 1.9
27 | NC(=O)CCc1ccncc1 | -0.25
28 | C[N+](C)(C)Cc1ccccc1.[Cl-] | -2.17
29 | C=CCCBr | 2.53
30 | CCC(C)c1ccc(O)cc1 (stereo not drawn) | 3.08
31 | CCCCCCCC1(c2ccncc2)CCC(=O)NC1=O (stereo not drawn) | 3.44
32 | CCCCNC1=CC(=O)c2ccccc2C1=O | 3.11
33 | CCCCCCCOC(N)=O | 2.36
34 | CCCCCCCCN(C)/N=N/c1ccc(C(N)=O)cc1 | 4.7
35 | CCOC(=O)c1ccc([N+](=O)[O-])cc1 | 2.33
36 | N#CN/C(N)=N/c1ccccc1 | 1.05
37 | OCc1ccc2ccccc2c1 | 2.21
38 | COc1ccc(OC(C)=O)cc1 | 1.54
39 | CCCC(NC(C)=O)C(N)=O (stereo not drawn) | -0.45
40 | O=C(O)c1ccc2oc3ccccc3c(=O)c2c1 | 3.12
41 | CC(=O)Nc1ccc2cccccc1-2 | 2.48
42 | CN1C(=O)CC(=O)NC1=O | -0.85
43 | c1ccc(Cc2ccccc2)cc1 | 4.14
44 | O=C(NC(CO)C(O)c1ccc([N+](=O)[O-])cc1)C(F)F (stereo not drawn) | 0.42
45 | O=C1CCC(N2C(=O)c3ccccc3C2=O)C(=O)N1 (stereo not drawn) | 0.33
46 | O=C(NCc1ccccc1)c1ccco1 | 1.81
47 | NC(=O)OCCC1=C(N2CC2)C(=O)C(Br)=C(N2CC2)C1=O | 0.68
48 | NNC(=O)c1cccc(I)c1 | 1.53

Row | SMILES | logP
49 | O=[N+]([O-])c1ccncc1 | 0.33
50 | NS(=O)(=O)c1ccccc1[N+](=O)[O-] | 0.34
51 | CCC(=O)C1(c2cccc(OC(=O)c3ccccc3)c2)CCN(C)CC1 | 3.03
52 | CCOc1ccccc1OCC | 2.42
53 | CCOC(=O)CNC(=O)C=[N+]=[N-] | -0.08
54 | CCCCOC(=O)c1cc(O)c(O)c(O)c1 | 2.41
55 | Cn1c(N)nc2ccccc21 | 0.95
56 | NC(=O)NCc1ccccc1 | 0.73
57 | CCCOC(=O)C(C(=O)OCCC)=C1SC=CS1 | 3.93
58 | CC(=O)C(=Cc1ccccc1C)C(C)=O | 1.98
59 | CCN(CCO)c1ccccc1 | 2.1
60 | CON(C)C(=O)Nc1ccccc1 | 1.29
61 | CNC(=O)C=Cc1ccccc1 | 1.81
62 | Oc1ccc(N=C=S)cc1 | 2.74
63 | CC(=O)Nc1ccc(C=O)cc1 | 1.25
64 | COc1cc(C(=O)O)ccc1O | 1.43
65 | CNCCOc1cc(C)c(O)cc1C(C)C | 2.35
66 | Oc1ccc(Cl)c2cccnc12 | 2.88
67 | CC(=O)c1ccc(S(N)(=O)=O)cc1 | 0.2
68 | COc1cccc([N+](=O)[O-])c1 | 2.16
69 | CC(C)C(=O)OCC1CCC(n2cnc3c(=O)[nH]cnc32)O1 (stereo not drawn) | 0.02
70 | CC(=O)Nc1cccc(OCc2cccc(NC(=N)NC(=N)N)c2)c1 | 1.82
71 | O=S(=O)(O)c1cc(O)c2ccccc2c1 | -0.18
72 | Cn1cnc([N+](=O)[O-])c1Sc1ncnc2nc[nH]c12 | 0.1

Row | SMILES | logP
73 | CCN(CC)C(C)=O | 0.34
74 | c1ccc(C2CNCCO2)cc1 (stereo not drawn) | 1.11
75 | COc1ccc(C=O)cc1C | 2.23
76 | O=NN1CCC(Br)C(Br)C1 (stereo not drawn) | 1.23
77 | ClCCc1ccccc1 | 2.95
78 | CCC(c1ccccc1)c1c(O)c2ccccc2oc1=O (stereo not drawn) | 3.62
79 | Oc1nc2ccccc2s1 | 1.76
80 | c1ccc2c(N3CCCCC3)ncnc2c1 | 2.92
81 | CC(=O)CNc1ccccc1C(=O)O | 1.85
82 | O=[N+]([O-])c1cc2ccccc2[n+]([O-])c1 | 0.56
83 | COc1ccccc1C | 2.74
84 | Nc1cc([N+](=O)[O-])ccc1C(=O)O | 1.91
85 | Oc1ccc(Cl)c(Cl)c1Cl | 3.8
86 | c1ccc(COCc2ccccc2)cc1 | 3.31
87 | CC(C)C(C(=O)OC(C#N)c1cccc(Oc2ccccc2)c1)c1ccc(Cl)cc1 (stereo not drawn) | 6.2
88 | O=C(O)C1COc2ccccc2O1 (stereo not drawn) | 1.4
89 | Nc1ccc2c(n1)[nH]c1ccccc12 | 2.6
90 | COc1cc([N+](=O)[O-])c(OC)cc1CC(C)N (stereo not drawn) | 1.74
91 | Clc1cccnc1 | 1.33
92 | CCc1ccc(OC(=O)NC)cc1 | 2.23
93 | ClC(Cl)(Cl)Sc1ccccc1 | 3.78
94 | COC(=O)CC#N | -0.47
95 | Cl[C@H]1[C@H](Cl)[C@@H](Cl)[C@@H](Cl)[C@H](Cl)[C@H]1Cl (racemic) | 3.72
96 | C1CC1 | 1.72

Row | SMILES | logP
97 | Cc1cc2nccnc2cc1C | 2.29
98 | COc1cccc(OC(=O)c2ccc(N)cc2O)c1 | 3.25
99 | CN(C)C(N(C)C)=S(I)c1cc(Cl)cc(Cl)c1 (stereo not drawn) | 0.52
100 | NC(=O)Nc1ccc(Oc2ccccc2)cc1 | 2.8
101 | CNC(=O)c1cccnc1 | 0
102 | O=C(CCl)NC(CO)C(O)c1ccc([N+](=O)[O-])cc1 (stereo not drawn) | 0.59
103 | C=CCC1(C(C)CCC)C(=O)NC(=O)NC1=O (stereo not drawn) | 1.97
104 | CC(NNC(=O)COc1ccccc1)c1ccccc1 (stereo not drawn) | 2.46
105 | CN(C)CCN1c2ccccc2Sc2ccccc21 | 4.2
106 | CC1(C)Cc2cccc(O)c2O1 | 2.08
107 | O=COc1ccccc1 | 1.26
108 | CCOC(=O)Nc1ccccc1 | 2.3
109 | CC(=O)NC(C)C(=O)NC(Cc1c[nH]c2ccccc12)C(=O)NC(C)C(=O)NC(C)(C)C (stereo not drawn) (Ac-Ala-Trp-Ala-NHtBu; configuration not given here) | 1.26
110 | O=c1c2ccccc2oc2ccccc12 | 3.39
111 | O=C(O)CCCOc1ccc(Cl)cc1Cl | 3.53
112 | CCOc1ccccc1S(I)=C(N(C)C)N(C)C (stereo not drawn) | -0.06
113 | CCOC(=O)c1cc2ccc(CC)cc2nn1 | 2.31
114 | CC(C)CN | 0.73
115 | CCOP(=S)(OCC)SCn1nnc2ccccc2c1=O | 3.4
116 | CCNc1nc(Cl)nc(NC(C)C)n1 | 2.61
117 | Nc1nc(N)nc(-c2ccccc2Cl)n1 | 1.19
118 | COC(=O)c1cc(Oc2ccc(Cl)cc2Cl)ccc1[N+](=O)[O-] | 4.48
119 | CC(C(c1ccccc1)c1ccccc1)[N+](=O)[O-] (stereo not drawn) | 3.91
120 | CCC(=O)OC1(C(=O)CCl)C(C)CC2C3CCC4=CC(=O)C=CC4(C)C3(Cl)C(O)CC21C (stereo not drawn) | 3.28

Row | SMILES | logP
121 | c1ccc(OP2OCCO2)cc1 | 1.42
122 | Nc1cccc(N)c1 | -0.33
123 | CCCCOC | 1.66
124 | CC(=O)NCC(=O)N[C@@H](CC(C)C)C(N)=O | -0.78
125 | O=C1CCC(=O)N1c1ccccc1F | 0.22
126 | CN(C)C(N(C)C)=S(I)c1cc(Cl)c(Cl)c(Cl)c1 (stereo not drawn) | 0.74
127 | CCOc1ccc(NC(=O)OC2CCCC2)cc1OCC | 3.33
128 | BrC=CBr | 1.76
129 | CC1CN1C1=CC(=O)c2ccccc2C1=O (stereo not drawn) | 2.17
130 | CC1CCC(O)CC1 (stereo not drawn) | 1.79
131 | CCOc1cccc2cccnc12 | 2.25
132 | CN(C)CCc1cccnc1 | 0.82
133 | CCOP(=O)(NC(C)C)Oc1ccc(SC)c(C)c1 (stereo not drawn) | 3.23
134 | CCCOC(=O)c1ccccc1 | 3.01
135 | CC(=O)C1CC1 | 0.49
136 | NC(=S)c1ccccc1N | 0.99
137 | OC1(c2ccc(Cl)cc2)CCN(CCCC2(c3ccc(F)cc3)OCCO2)CC1 | 3.84
138 | CCCCc1cccc(OCC(=O)O)c1 | 3.18
139 | COC(=O)CCCCCC(=O)OC | 1.38
140 | N#Cc1ccc2ccccc2n1 | 1.6
141 | CCCCCCCCCC(=O)N1CCCC1=O | 4.33
142 | CCCCOc1cccc(C=C(C(=O)OCC)C(=O)OCC)c1 | 4.03
143 | CON(C)C(=O)Nc1ccc2c(c1)Cc1ccccc1-2 | 3.67
144 | c1cc2ccc3ccc4ccc5cccc6c(c1)c2c3c4c56 | 6.63

Row | SMILES | logP
145 | O=C(O)COc1ccccc1Cl | 1.86
146 | Cc1cc(-c2ccc(N)c(C)c2)ccc1N | 2.34
147 | CCCCCCCN(C)/N=N/c1ccc(C(N)=O)cc1 | 4.2
148 | COc1ccc(OC)c(N)c1 | 1.2
149 | CC(=O)N[C@H](C(=O)N[C@H](C(N)=O)C(C)C)[C@@H](C)O (Ac-Thr-Val-NH2) | -1.25
150 | CC1=CC(=O)C=CC1=O | 0.72
151 | Clc1cc(Cl)nc(Cl)c1 | 2.68
152 | N#CCC(=O)NC(CO)C(O)c1ccc([N+](=O)[O-])cc1 (stereo not drawn) | -0.22
153 | O=[N+]([O-])c1cccc2c1ccc[n+]2[O-] | 0.49
154 | CCCCCCC(=O)NN | 0.97
155 | S=C=NC(c1ccccc1)(c1ccccc1)c1ccccc1 | 7.02
156 | CN(C)C | 0.16
157 | O=C(O)c1ccccn1 | 0.72
158 | CC(C)(C)c1ccccn1 | 2.4
159 | c1ccc(Nc2cccc3ccccc23)cc1 | 4.2
160 | FC(F)(F)c1nc2c(Cl)c(Cl)ccc2[nH]1 | 3.49
161 | CCC[N+](=O)[O-] | 0.87
162 | CCc1ccccc1OC(C)=O | 2.42
163 | O=C(O)COc1ccc(I)cc1 | 2.69
164 | O=C(O)c1ccc(O)c(O)c1O | 1.05
165 | c1ccc(-c2ccncn2)cc1 | 1.92
166 | CCCCCC(C)=O | 1.98
167 | COc1cccc(C(=O)O)c1 | 2.02

Same assay, conditions: pH 5.0

Row | SMILES | logD
168 | N=C(NCCCCCCNC(=N)NC(=N)Nc1ccc(Cl)cc1)NC(=N)Nc1ccc(Cl)cc1 | 0.08
